The target of data set [1] is T1, JAK2 (Homo sapiens, UniProt O60674).
T1 construct: GST; purchased Life Technologies
Briefly: Assay 1: LanthaScreen biochemical JAK kinase assay, JAK2. The note with it: converted from pIC50 by Cheng-Prusoff; ATP at Km 3 μM; read-out: JAK 2 pKi (converted). The protocol:
A panel of four LanthaScreen JAK biochemical assays (JAK1, 2, 3 and Tyk2) were carried in a common kinase reaction buffer (50 mM HEPES, pH 7.5, 0.01% Brij-35, 10 mM MgCl2, and 1 mM EGTA). Recombinant GST-tagged JAK enzymes and a GFP-tagged STAT1 peptide substrate were obtained from Life Technologies.
The serially diluted compound was pre-incubated with each of the four JAK enzymes and the substrate in white 384-well microplates (Corning) at ambient temperature for lh. ATP was subsequently added to initiate the kinase reactions in 10 μL total volume, with 1% DMSO. […] The plates were allowed to incubate at ambient temperature for lh before being read on the EnVision reader (Perkin Elmer). Emission ratio signals (520 nm/495 nm) were recorded and utilized to calculate the percent inhibition values based on DMSO and background controls.
For dose-response analysis, percent inhibition data were plotted vs. compound concentrations, and IC50 values were determined from a 4-parameter robust fit model with the Prism software (GraphPad Software). Results were expressed as pIC50 (negative logarithm of IC50) and subsequently converted to pK1 (negative logarithm of dissociation constant, Ki) using the Cheng-Prusoff equation.

The subject of data set [2] is IL-27 induced CXCL10 secretion in EpiAirway tissue cultures. Briefly: Assay 15: IL-27 induced CXCL10 in human 3D airway cultures. The note with it: 192 h, Day 8, average from 3 or 4 donors, read-out: % inhibition of IL-27 induced CXCL10 secretion (±STDV). Format: cell-based. The protocol: EpiAirway tissue cultures were obtained from Mattek (AIR-100). Cultures were derived from asthmatic donors. In a cell culture insert, human derived tracheal/bronchial epithelial cells were grown and differentiated on a porous membrane support, allowing an air-liquid interface with warmed culture medium below the cells and a gaseous test atmosphere above. Tissues were cultured in maintenance media (Mattek, AIR-100-MM) in a 37° C., 5% CO2 humidified incubator. Four donors were tested. On Day 0, tissue cultures were treated with test compounds at 10 μM, 1 μM and/or 0.1 μM. Compounds were diluted in dimethyl sulfoxide (DMSO, Sigma) to a final concentration of 0.1%. DMSO at 0.1% was used as a vehicle control. Test compounds were incubated with cultures for 1 hour at 37° C., 5% CO2, followed by the addition of pre-warmed media containing IFNγ (R&D Systems) or IL-27 (R&D Systems) at a final concentration at 100 ng/ml. Tissue cultures were maintained for 8 days. Media was replaced every 2 days with fresh media containing compounds and IFNγ or IL-27. On Day 8, tissue cultures and supernatants were collected for analysis. Supernatant samples were assayed for CXCL10 (IP-10) and CXCL9 (MIG) using luminex analysis (EMD Millipore). Data is expressed as % Inhibition +/−standard deviation (±STDV). Percent inhibition was determined by compound inhibitory potency against IFNγ or IL-27 induced CXCL10 or CXCL9 secretion compared to vehicle treated cells. Data is the average from 3 or 4 donors. Compound 1 was able to inhibit IFNγ induced CXCL10 secretion by 99%±2.0 (at 10 μM), 71%±19 (at […]) and 17%±12 (at 0.1 μM) when compared to vehicle control. Compound 1 was able to inhibit IFNγ induced CXCL9 secretion by 100%±0.3 (at 10 μM), 99%±0.9 (at 1 μM) and 74%±17 (at 0.1 μM) when compared to vehicle. […] Compound 1 was able to inhibit IL-27 induced CXCL9 secretion by 100%±0 (at 10 μM), 95%±3.7 (at 1 μM) and 75%±3.5 (at 0.1 μM) when compared to vehicle control.

The nature of data set [3]: Assay 8: Pharmacokinetics in plasma and lung in mouse. Format: in vivo, BALB/c mice. Conditions: BALB/c, 10 µg/mouse, oral aspiration, 0.2 mg/mL, 50 uL, read-out: exposure in lung relative to exposure in plasma (lung AUC to plasma AUC ratio). The protocol: Plasma and lung levels of test compounds and ratios thereof were determined in the following manner. BALB/c mice from Charles River Laboratories were used in the assay. Test compounds were individually formulated in 20% propylene glycol in pH 4 citrate buffer at a concentration of 0.2 mg/mL and 50 uL of the dosing solution was introduced into the trachea of a mouse by oral aspiration. At various time points (typically 0.167, 2, 6, 24 hr) post dosing, blood samples were removed via cardiac puncture and intact lungs were excised from the mice. Blood samples were centrifuged (Eppendorf centrifuge, 5804R) for 4 minutes at approximately 12,000 rpm at 4° C. to collect plasma. Lungs were padded dry, weighed, and homogenized at a dilution of 1:3 in sterile water. Plasma and lung levels of test compound were determined by LC-MS analysis against analytical standards constructed into a standard curve in the test matrix. A lung to plasma ratio was determined as the ratio of the lung AUC in μg hr/g to the plasma AUC in μg hr/mL, where AUC is conventionally defined as the area under the curve of test compound concentration vs. time.

T1 sequence (O60674 whole entry): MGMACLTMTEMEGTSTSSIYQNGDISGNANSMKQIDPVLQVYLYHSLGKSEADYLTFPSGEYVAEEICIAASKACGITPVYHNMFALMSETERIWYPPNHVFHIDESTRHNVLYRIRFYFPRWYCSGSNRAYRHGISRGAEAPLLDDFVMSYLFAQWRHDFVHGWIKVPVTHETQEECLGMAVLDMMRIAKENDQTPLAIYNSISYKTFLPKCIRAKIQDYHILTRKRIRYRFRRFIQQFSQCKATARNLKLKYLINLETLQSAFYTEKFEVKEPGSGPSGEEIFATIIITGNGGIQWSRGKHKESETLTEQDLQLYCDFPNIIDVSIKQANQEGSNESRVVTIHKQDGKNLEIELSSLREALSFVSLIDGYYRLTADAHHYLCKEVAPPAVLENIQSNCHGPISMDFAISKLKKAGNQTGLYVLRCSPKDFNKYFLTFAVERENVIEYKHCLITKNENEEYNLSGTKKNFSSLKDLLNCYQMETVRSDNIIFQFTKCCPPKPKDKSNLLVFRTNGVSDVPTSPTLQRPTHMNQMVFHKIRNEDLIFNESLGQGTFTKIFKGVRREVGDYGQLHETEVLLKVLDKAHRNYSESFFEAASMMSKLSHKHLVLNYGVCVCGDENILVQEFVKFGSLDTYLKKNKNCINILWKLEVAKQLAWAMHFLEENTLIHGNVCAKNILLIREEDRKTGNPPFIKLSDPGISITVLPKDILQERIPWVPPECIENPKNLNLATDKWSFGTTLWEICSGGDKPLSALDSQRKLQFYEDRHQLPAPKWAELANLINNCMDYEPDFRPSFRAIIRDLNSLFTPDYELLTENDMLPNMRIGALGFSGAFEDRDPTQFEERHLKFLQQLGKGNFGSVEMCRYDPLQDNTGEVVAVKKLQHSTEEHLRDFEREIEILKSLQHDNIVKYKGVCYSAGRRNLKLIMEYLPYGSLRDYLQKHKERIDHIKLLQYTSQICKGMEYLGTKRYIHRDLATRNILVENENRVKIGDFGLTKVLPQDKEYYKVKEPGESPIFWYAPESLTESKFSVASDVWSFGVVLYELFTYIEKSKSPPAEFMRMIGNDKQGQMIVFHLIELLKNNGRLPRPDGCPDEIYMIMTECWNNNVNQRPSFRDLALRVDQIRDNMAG

Consider `CCc1cc(O)c(F)cc1-c1ccc2c(-c3nc4c([nH]3)CCN(C3CCN(C)CC3)C4)n[nH]c2c1` [Compound 1, 5-ethyl-2-fluoro-4-(3-(5-(1-methylpiperidin-4-yl)-4,5,6,7-tetrahydro-1H-imidazo[4,5-c]pyridin-2-yl)-1H-indazol-6-yl)phenol], for which the Ki in data set [1] is 15.8 pM. In data set [2] (at 0.1 μM), the inhibition at 0.1 µM came to 73%. For the same molecule, the inhibition at 1 µM in data set [2] (at 1 μM) was 98%. Moreover, the inhibition at 10 µM in data set [2] (at 10 μM) is 108%. Besides, in data set [3], the Kp is about 55.

These data come from patent publication US10251874B2, “Crystalline forms of a JAK inhibitor compound” (THERAVANCE BIOPHARMA R&D IP, LLC, priority 2017, dated 2019).
